From patent publication US20220041647A1, “ESTRA-1,3,5(10)-TRIENE COMPOUNDS CONDENSED IN POSITION 16(17) WITH A PYRAZOLE RING AS INHIBITORS OF 17-HSD1” (FORENDO PHARMA LTD, priority 2018, published 2022)

Columns and labels:
[1] = target: T1, recombinant human 17β-HSD1 (Homo sapiens, UniProt P14061); test: Inhibition of recombinant human 17β-HSD1 (estrone to estradiol conversion, HPLC/radioactivity); assay type: biochemical; conditions: compound 100 nM; 30 nM estrone, 1 mM NADPH, 30 min RT
T1 construct: made in house; host or cells: Sd9 (Sf9) insect cells, baculovirus (Bac to Bac Expression System)
T1 sequence (P14061 1-328): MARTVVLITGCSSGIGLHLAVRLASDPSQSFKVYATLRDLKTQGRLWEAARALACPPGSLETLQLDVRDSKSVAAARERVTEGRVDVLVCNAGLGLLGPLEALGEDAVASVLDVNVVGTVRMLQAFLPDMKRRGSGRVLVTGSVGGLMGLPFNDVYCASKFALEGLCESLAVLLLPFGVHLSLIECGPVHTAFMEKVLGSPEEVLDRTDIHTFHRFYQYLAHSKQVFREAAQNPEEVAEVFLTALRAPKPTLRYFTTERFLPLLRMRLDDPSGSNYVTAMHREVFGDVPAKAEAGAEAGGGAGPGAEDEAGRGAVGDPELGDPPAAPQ
Outline: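 Microsomal human 17β-HSD1 from Sf9 baculovirus (1 μg/ml) was incubated 30 min at RT in 20 mM KH2PO4 pH 7.4 with 30 nM ^3H-estrone, 1 mM NADPH and inhibitor at 1 μM or 0.1 μM (1% DMSO). Estrone and estradiol were separated by HPLC with radioactivity detection. % inhibition = 100 − % conversion relative to uninhibited control.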

[2] = Metabolic stability assay, human hepatocyte incubations; assay type: in vitro ADME; conditions: compound 1 μM, human hepatocytes, 0-60 min at 37° C.; read-out: Human hepatocytes MetStab T½ min
Experimental: Compound stock solutions of the invention were prepared in […]. Final concentration of DMSO was adjusted to 1% in all samples. The in vitro metabolic stability of the compounds of the invention was determined for exemplified compounds using human hepatocyte incubations; study compounds at concentration of 1 μM were incubated 0, 10, 20, 40 and 60 min at 37° C. Samples were collected at all time points and compounds were detected by LC-MS/MS analysis. The percent compound remaining is calculated by comparing the peak area of the parent compound at each time point to time zero. In vitro metabolic stability was determined as half life (T1/2), which was determined by regression analysis of the percent parent disappearance vs. time curve.

[3] = target: T2, recombinant human 17β-HSD2 (Homo sapiens, UniProt P37059); test: Inhibition of recombinant human 17β-HSD2 (estradiol to estrone conversion, HPLC/radioactivity); assay type: biochemical; conditions: compound 1 μM; 50 nM estradiol, 1 mM NADH, 30 min RT
T2 construct: made in house; host or cells: Sd9 (Sf9) insect cells, baculovirus (Bac to Bac Expression System)
T2 sequence (P37059 1-387): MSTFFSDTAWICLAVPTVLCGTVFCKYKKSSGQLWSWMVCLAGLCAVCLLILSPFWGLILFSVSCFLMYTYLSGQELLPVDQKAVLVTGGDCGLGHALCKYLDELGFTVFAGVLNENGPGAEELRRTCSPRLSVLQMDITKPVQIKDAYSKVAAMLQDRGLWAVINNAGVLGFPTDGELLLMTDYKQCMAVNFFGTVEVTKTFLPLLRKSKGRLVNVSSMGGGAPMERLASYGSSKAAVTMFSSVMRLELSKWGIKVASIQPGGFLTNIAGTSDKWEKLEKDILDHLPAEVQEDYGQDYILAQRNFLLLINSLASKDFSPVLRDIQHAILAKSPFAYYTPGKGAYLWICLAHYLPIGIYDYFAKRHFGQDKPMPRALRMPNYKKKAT
Outline: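 Membrane extract of Sf9 cells expressing recombinant human 17β-HSD2 (4 μg/ml), in 20 mM KH2PO4 pH 8.5 with 50 nM ^3H-spiked estradiol and 1 mM NADH, 30 min at RT, 1% DMSO. Compound at 1 μM or 0.1 μM; estrone formation by HPLC radioactivity, % inhibition relative to uninhibited conversion.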

[4] = system: HSD1 enzyme that is expressed in rabbit placenta tissue; test: Inhibition of E1 to E2 conversion in rabbit placenta tissue homogenate; assay type: biochemical; conditions: compound 100 nM, 30 nM estrone, 1 mM β-NADPH, 30 min
Outline: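 Rabbit placenta homogenate (20 mM KH2PO4, 1 mM EDTA, pH 7.4) incubated 30 min with 1 mM β-NADPH, 30 nM estrone plus 5 nM [3H]-estrone tracer, and inhibitor at 1 μM or 0.1 μM (1% DMSO). Stopped with TCA; estrone and estradiol resolved by HPLC with scintillation counting; % inhibition = 100 − % conversion relative to uninhibited control.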

C[C@]12CCC3c4cccc(F)c4CCC3C1[C@H](CCC(=O)NC1CCOCC1)c1c[nH]nc12 (stereo partly drawn) [Compound 45, 3-((8aS,12S)-3-fluoro-8a-methyl-1,2,6b,7,8,8a,10,12,12a,12b-decahydronaphtho[2′,1′:4,5]indeno[1,2-c]pyrazol-12-yl)-N-(tetrahydro-2H-pyran-4-yl)propanamide]
inhibition at 0.1 µM [1]: 90% | half-life at 1 μM [2]: 35 min | inhibition at 1 µM [3]: 3%

C[C@]12CCC3c4ccccc4CCC3C1[C@H](CCC(=O)N1CCCC1)c1c[nH]nc12 (stereo partly drawn) [Compound 147, 3-((8aS,12S)-8a-methyl-1,2,6b,7,8,8a,10,12,12a,12b-decahydronaphtho[2′,1′:4,5]indeno[1,2-c]pyrazol-12-yl)-1-(pyrrolidin-1-yl)propan-1-one]
inhibition at 0.1 µM [1]: 86% | half-life at 1 μM [2]: 9 min | inhibition at 1 µM [3]: 11%

CC(C)(C)NC(=O)CC[C@@H]1c2c[nH]nc2[C@@]2(C)CCC3c4ccccc4CCC3C12 (stereo partly drawn) [Compound 201, N-(tert-butyl)-3-((8aS,12S)-8a-methyl-1,2,6b,7,8,8a,10,12,12a,12b-decahydronaphtho[2′,1′:4,5]indeno[1,2-c]pyrazol-12-yl)propanamide]
inhibition at 0.1 µM [1]: 87% | half-life at 1 μM [2]: 13 min | inhibition at 1 µM [3]: 4%

C[C@]12CCC3c4cccc(F)c4CCC3C1[C@H](CCC(=O)N1CCOCC1)c1c[nH]nc12 (stereo partly drawn) [Compound 234, 3-((8aS,12S)-3-fluoro-8a-methyl-1,2,6b,7,8,8a,10,12,12a,12b-decahydronaphtho[2′,1′:4,5]indeno[1,2-c]pyrazol-12-yl)-1-morpholinopropan-1-one]
inhibition at 0.1 µM [1]: 85% | half-life at 1 μM [2]: 26 min | inhibition at 1 µM [3]: 0%

C[C@]12CCC3c4cccc(F)c4CCC3C1[C@H](CCC(=O)Nc1cc(N3CCOCC3)ccn1)c1c[nH]nc12 (stereo partly drawn) [Compound 240, 3-((8aS,12S)-3-fluoro-8a-methyl-1,2,6b,7,8,8a,10,12,12a,12b-decahydronaphtho[2′,1′:4,5]indeno[1,2-c]pyrazol-12-yl)-N-(4-morpholinopyridin-2-yl)propanamide]
inhibition at 0.1 µM [1]: 84% | Rabbit placenta inhibition % @100 nM [4]: 35% | inhibition at 1 µM [3]: 2%

CN(CC(C)(C)O)C(=O)CC[C@@H]1c2c[nH]nc2[C@@]2(C)CCC3c4cccc(F)c4CCC3C12 (stereo partly drawn) [Compound 243, 3-((8aS,12S)-3-fluoro-8a-methyl-1,2,6b,7,8,8a,10,12,12a,12b-decahydronaphtho[2′,1′:4,5]indeno[1,2-c]pyrazol-12-yl)-N-(2-hydroxy-2-methylpropyl)-N-methylpropanamide]
inhibition at 0.1 µM [1]: 80% | half-life at 1 μM [2]: 15 min | inhibition at 1 µM [3]: 5%

Cc1cc(NC(=O)CC[C@@H]2c3c[nH]nc3[C@@]3(C)CCC4c5ccccc5CCC4C23)no1 (stereo partly drawn) [Compound 246, 3-((8aS,12S)-8a-methyl-1,2,6b,7,8,8a,10,12,12a,12b-decahydronaphtho[2′,1′:4,5]indeno[1,2-c]pyrazol-12-yl)-N-(5-methylisoxazol-3-yl)propanamide]
inhibition at 0.1 µM [1]: 80% | Rabbit placenta inhibition % @100 nM [4]: 19% | inhibition at 1 µM [3]: 15%

C[C@]12CCC3c4ccccc4CCC3C1[C@H](CCC(=O)Nc1ccc(N3CCOCC3)cn1)c1c[nH]nc12 (stereo partly drawn) [Compound 252, 3-((8aS,12S)-8a-methyl-1,2,6b,7,8,8a,10,12,12a,12b-decahydronaphtho[2′,1′:4,5]indeno[1,2-c]pyrazol-12-yl)-N-(5-morpholinopyridin-2-yl)propanamide]
inhibition at 0.1 µM [1]: 90% | Rabbit placenta inhibition % @100 nM [4]: 46% | inhibition at 1 µM [3]: 7%

C[C@]12CCC3c4ccccc4CCC3C1[C@H](CCC(=O)Nc1cccnn1)c1c[nH]nc12 (stereo partly drawn) [Compound 255, 3-((8aS,12S)-8a-methyl-1,2,6b,7,8,8a,10,12,12a,12b-decahydronaphtho[2′,1′:4,5]indeno[1,2-c]pyrazol-12-yl)-N-(pyridazin-3-yl)propanamide]
inhibition at 0.1 µM [1]: 66% | Rabbit placenta inhibition % @100 nM [4]: 46% | inhibition at 1 µM [3]: 0%

C[C@]12CCC3c4ccccc4CCC3C1[C@H](CCC(=O)Nc1cccc(F)n1)c1c[nH]nc12 (stereo partly drawn) [Compound 258, N-(6-fluoropyridin-2-yl)-3-((8aS,12S)-8a-methyl-1,2,6b,7,8,8a,10,12,12a,12b-decahydronaphtho[2′,1′:4,5]indeno[1,2-c]pyrazol-12-yl)propanamide]
inhibition at 0.1 µM [1]: 90% | Rabbit placenta inhibition % @100 nM [4]: 43% | inhibition at 1 µM [3]: 2%
